Columns and labels:
Assay type in all cases: in vivo
[1] = system: field corn (Zea mays L., var. Dekalb 535, CORN); assay: Pre-emerge test, crop safety; conditions: pre-emerge, rated 14 days after application, 0 = no damage, 100 = complete death
Outline: (§1)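 Applied at 15–1000 g ai/ha from acetone in 187 l/ha spray volume. Post-emergence applications included 0.25% v/v non-ionic surfactant and reached plants sown 8–21 days before. Pre-emergence applications were incorporated by surface watering. Efficacy or crop damage was rated on a 0–100 scale after 14 days.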

[2] = system: upland rice (Oryza sp., var. Tebonnet, RICE); assay: Pre-emerge test, crop safety; conditions: pre-emerge, rated 14 days after application, 0 = no damage, 100 = complete death
Outline: as §1

[3] = system: field corn (Zea mays L., var. Dekalb 535, CORN); assay: Post-emerge test, crop safety; conditions: phytotoxicity rating 0-100 (0 no damage, 100 complete death), 14 days after application
Outline: (§2)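 Herbicidal damage is scored 0 (none) to 100 (complete plant death) two weeks after a simulated field spray. Rates span 15–1000 g ai/ha, delivered in acetone at 187 l/ha. For post-emergence treatments, plants have 2–3 leaves and the spray carries 0.25% v/v non-ionic surfactant.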

[4] = system: upland rice (Oryza sp., var. Tebonnet, RICE); assay: Post-emerge test, crop safety; conditions: phytotoxicity rating 0-100 (0 no damage, 100 complete death), 14 days after application
Outline: as §2

[5] = system: ivyleaf morningglory (Ipomoea hederacea, IPOHE); assay: Post-emerge test, greenhouse herbicide activity screening; conditions: phytotoxicity rating 0-100 (0 no damage, 100 complete death), 14 days after application
Outline: (§3)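 Each test used a mechanized track sprayer delivering 187 l/ha of acetone solution at 15–1000 g ai/ha. Post-emerge foliage at 2–3 leaves was treated with added 0.25% v/v non-ionic surfactant and bottom-watered only. Injury was assessed on day 14, where 100 means total kill.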

[6] = system: sicklepod (Cassia obtusifolia, CASOB); assay: as above; conditions: phytotoxicity rating 0-100 (0 no damage, 100 complete death), 14 days after application
Outline: as §3

[7] = system: green foxtail (Setaria viridis, SETVI); assay: as above; conditions: phytotoxicity rating 0-100 (0 no damage, 100 complete death), 14 days after application
Outline: as §3

[8] = system: redroot pigweed (Amaranthus retroflexus, AMARE); assay: as above; conditions: phytotoxicity rating 0-100 (0 no damage, 100 complete death), 14 days after application
Outline: as §3

[9] = system: common ragweed (Ambrosia artemisizfolia L., AMBEL); assay: as above; conditions: phytotoxicity rating 0-100 (0 no damage, 100 complete death), 14 days after application
Outline: as §3

[10] = system: velvetleaf (Abutilon theophrasti, ABUTH); assay: as above; conditions: phytotoxicity rating 0-100 (0 no damage, 100 complete death), 14 days after application
Outline: as §3

[11] = system: lambsquarters (Chenopodium album, CHEAL); assay: as above; conditions: phytotoxicity rating 0-100 (0 no damage, 100 complete death), 14 days after application
Outline: as §3

[12] = system: large crabgrass (Digitaria sanguinalis, DIGSA); assay: as above; conditions: phytotoxicity rating 0-100 (0 no damage, 100 complete death), 14 days after application
Outline: as §3

[13] = system: barnyardgrass (Echinochloa crus-galli, ECHCG); assay: as above; conditions: phytotoxicity rating 0-100 (0 no damage, 100 complete death), 14 days after application
Outline: as §3

[14] = system: johnsongrass (Sorghum halepense, SORHA); assay: as above; conditions: phytotoxicity rating 0-100 (0 no damage, 100 complete death), 14 days after application
Outline: as §3

[15] = system: redroot pigweed (Amaranthus retroflexus, AMARE); assay: Pre-emerge test, greenhouse herbicide activity screening; conditions: pre-emerge, rated 14 days after application, 0 = no damage, 100 = complete death
Outline: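 Compounds in acetone were track-sprayed at 15-1000 g ai/ha (187 l/ha) on sandy loam pots: pre-emerge one day after seeding, post-emerge at 2-3 leaf stage with 0.25% v/v non-ionic surfactant. Phytotoxicity was rated 14 days later on a 0 (no damage) to 100 (complete death) scale.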

[16] = system: ivyleaf morningglory (Ipomoea hederacea, IPOHE); assay: as above; conditions: pre-emerge, rated 14 days after application, 0 = no damage, 100 = complete death
Outline: as §2

[17] = system: sicklepod (Cassia obtusifolia, CASOB); assay: as above; conditions: pre-emerge, rated 14 days after application, 0 = no damage, 100 = complete death
Outline: as §2

[18] = system: green foxtail (Setaria viridis, SETVI); assay: as above; conditions: pre-emerge, rated 14 days after application, 0 = no damage, 100 = complete death
Outline: as §2

[19] = system: common ragweed (Ambrosia artemisizfolia L., AMBEL); assay: as above; conditions: pre-emerge, rated 14 days after application, 0 = no damage, 100 = complete death
Outline: as §2

[20] = system: velvetleaf (Abutilon theophrasti, ABUTH); assay: as above; conditions: pre-emerge, rated 14 days after application, 0 = no damage, 100 = complete death
Outline: as §2

[21] = system: lambsquarters (Chenopodium album, CHEAL); assay: as above; conditions: pre-emerge, rated 14 days after application, 0 = no damage, 100 = complete death
Outline: as §2

[22] = system: large crabgrass (Digitaria sanguinalis, DIGSA); assay: as above; conditions: pre-emerge, rated 14 days after application, 0 = no damage, 100 = complete death
Outline: as §2

[23] = system: barnyardgrass (Echinochloa crus-galli, ECHCG); assay: as above; conditions: pre-emerge, rated 14 days after application, 0 = no damage, 100 = complete death
Outline: as §2

[24] = system: johnsongrass (Sorghum halepense, SORHA); assay: as above; conditions: pre-emerge, rated 14 days after application, 0 = no damage, 100 = complete death
Outline: as §2

Cn1c(C(F)(F)F)cc(=O)n(-c2c(F)cc(Cl)c(OC3CCCC3)c2N)c1=O [Compound 1-21]
Pre-emerge crop damage CORN (phytotoxicity rating, scale 0-100) ([1]; 63 g ai/ha): 0
Pre-emerge crop damage CORN (phytotoxicity rating, scale 0-100) ([1]; 250 g ai/ha): 0
Pre-emerge crop damage RICE (phytotoxicity rating, scale 0-100) ([2]; 63 g ai/ha): 0
Pre-emerge crop damage RICE (phytotoxicity rating, scale 0-100) ([2]; 250 g ai/ha): 10
Post-emerge Herbicidal Activity CORN (crop damage) ([3]; 63 g ai/ha): 5
Post-emerge Herbicidal Activity CORN (crop damage) ([3]; 250 g ai/ha): 5
Post-emerge Herbicidal Activity RICE (crop damage) ([4]; 63 g ai/ha): 10
Post-emerge Herbicidal Activity RICE (crop damage) ([4]; 250 g ai/ha): 10
Post-emerge Herbicidal Activity IPOHE ([5]; 63 g ai/ha): 70
Post-emerge Herbicidal Activity IPOHE ([5]; 250 g ai/ha): 90
Post-emerge Herbicidal Activity CASOB ([6]; 63 g ai/ha): 10
Post-emerge Herbicidal Activity CASOB ([6]; 250 g ai/ha): 30
Post-emerge Herbicidal Activity SETVI ([7]; 63 g ai/ha): 10
Post-emerge Herbicidal Activity SETVI ([7]; 250 g ai/ha): 30
Post-emerge Herbicidal Activity AMARE ([8]; 63 g ai/ha): 95
Post-emerge Herbicidal Activity AMARE ([8]; 250 g ai/ha): 100
Post-emerge Herbicidal Activity AMBEL ([9]; 63 g ai/ha): 10
Post-emerge Herbicidal Activity AMBEL ([9]; 250 g ai/ha): 30
Post-emerge Herbicidal Activity ABUTH ([10]; 63 g ai/ha): 85
Post-emerge Herbicidal Activity ABUTH ([10]; 250 g ai/ha): 100
Post-emerge Herbicidal Activity CHEAL ([11]; 63 g ai/ha): 75
Post-emerge Herbicidal Activity CHEAL ([11]; 250 g ai/ha): 95
Post-emerge Herbicidal Activity DIGSA ([12]; 63 g ai/ha): 0
Post-emerge Herbicidal Activity DIGSA ([12]; 250 g ai/ha): 0
Post-emerge Herbicidal Activity ECHCG ([13]; 63 g ai/ha): 0
Post-emerge Herbicidal Activity ECHCG ([13]; 250 g ai/ha): 0
Post-emerge Herbicidal Activity SORHA ([14]; 63 g ai/ha): 0
Post-emerge Herbicidal Activity SORHA ([14]; 250 g ai/ha): 0
Pre-emerge Herbicidal Activity AMARE (phytotoxicity rating, scale 0-100) ([15]; 63 g ai/ha): 98
Pre-emerge Herbicidal Activity AMARE (phytotoxicity rating, scale 0-100) ([15]; 250 g ai/ha): 100
Pre-emerge Herbicidal Activity IPOHE (phytotoxicity rating, scale 0-100) ([16]; 63 g ai/ha): 0
Pre-emerge Herbicidal Activity IPOHE (phytotoxicity rating, scale 0-100) ([16]; 250 g ai/ha): 40
Pre-emerge Herbicidal Activity CASOB (phytotoxicity rating, scale 0-100) ([17]; 63 g ai/ha): 0
Pre-emerge Herbicidal Activity CASOB (phytotoxicity rating, scale 0-100) ([17]; 250 g ai/ha): 0
Pre-emerge Herbicidal Activity SETVI (phytotoxicity rating, scale 0-100) ([18]; 63 g ai/ha): 95
Pre-emerge Herbicidal Activity SETVI (phytotoxicity rating, scale 0-100) ([18]; 250 g ai/ha): 100
Pre-emerge Herbicidal Activity AMBEL (phytotoxicity rating, scale 0-100) ([19]; 63 g ai/ha): 0
Pre-emerge Herbicidal Activity AMBEL (phytotoxicity rating, scale 0-100) ([19]; 250 g ai/ha): 100
Pre-emerge Herbicidal Activity ABUTH (phytotoxicity rating, scale 0-100) ([20]; 63 g ai/ha): 70
Pre-emerge Herbicidal Activity ABUTH (phytotoxicity rating, scale 0-100) ([20]; 250 g ai/ha): 100
Pre-emerge Herbicidal Activity CHEAL (phytotoxicity rating, scale 0-100) ([21]; 63 g ai/ha): 100
Pre-emerge Herbicidal Activity CHEAL (phytotoxicity rating, scale 0-100) ([21]; 250 g ai/ha): 100
Pre-emerge Herbicidal Activity DIGSA (phytotoxicity rating, scale 0-100) ([22]; 63 g ai/ha): 70
Pre-emerge Herbicidal Activity DIGSA (phytotoxicity rating, scale 0-100) ([22]; 250 g ai/ha): 100
Pre-emerge Herbicidal Activity ECHCG (phytotoxicity rating, scale 0-100) ([23]; 63 g ai/ha): 0
Pre-emerge Herbicidal Activity ECHCG (phytotoxicity rating, scale 0-100) ([23]; 250 g ai/ha): 95
Pre-emerge Herbicidal Activity SORHA (phytotoxicity rating, scale 0-100) ([24]; 63 g ai/ha): 0
Pre-emerge Herbicidal Activity SORHA (phytotoxicity rating, scale 0-100) ([24]; 250 g ai/ha): 90

— US6355799B1, “Substituted benzene compounds, process for their preparation, and herbicidal and defoliant compositions containing them” (ISK Americas Incorporated, priority 1997, dated 2002)
